In patent US9890192B2, “Targeted nitroxide agents” (University of Pittsburgh—of the Commonwealth System of …, priority 2008, dated 2018):

Tests used:
[1] = system: caspases 3 and 7; test: Caspases 3 and 7 activity assay in gut mucosa after hemorrhagic shock; format: in vivo, rat; conditions: intraluminal XJB-5-131 solution vs vehicle
Protocol: Caspases 3 and 7 activity assay. Caspases 3 and 7 activity was measured using a commercially available assay kit, Caspase Glo™ 3/7 assay kit (Promega, Madison, Wis.). Briefly, 50 μl of rat gut mucosa homogenate (20 jug protein) was mixed with 50 μl of Caspase-Glo™ reagent and incubated at room temperature for 1 hour. At the end of incubation period, the luminescence of each sample was measured using a plate reading chemiluminometer (ML1000, Dynatech Laboratories, Horsham, Pa.). Activity of caspases 3 and 7 was expressed as luminescence intensity (arbitrary units per mg protein). Protein concentrations were determined using the BioRad assay (Bio-Rad Laboratories, Inc., Hercules, Calif.).
After two hours of HS, samples of ileal mucosa from the gut sacs filled with the vehicle and XJB-5-131 were obtained and compared with ileal mucosa of normal MECs. All samples were assayed with caspase 3 or caspase 7 activity as well as the peroxidation of phosphatidylcholine (“PC”), phosphatidylethanolamine (“PE”), phosphatidylserine (“PS”), and cardiolipin (“CL”), summarized in FIG. 7.

[2] = system: mouse embryonic cells (MEC); test: EPR-based analysis of integration and reduction of nitroxide Gramicidin S-peptidyl conjugates in MECs; format: cell-based; conditions: 10 μM, whole cells, cytosol fractions
Protocol: Electron paramagnetic resonance (“EPR”) spectroscopy was used to monitor the cellular delivery of compounds 5a and 5b shown in FIG. 3 in mouse embryonic cells (“MEC”).
The following conditions were used during the EPR-based analysis of the integration and reduction of nitroxide Gramicidin S-peptidyl conjugates in MECs. The MECs at a concentration of 10 million MECs per mL were incubated with 10 μM of 4-AT and compound 5a, respectively. Recovered nitroxide radicals in whole cells, mitochondria, and cytosol fractions were resuspended in phosphate buffer saline (“PBS”) in the presence and absence, respectively, of 2 μM K3Fe(CN)6.

**Q.** Which “caspase 3 and 7 activity after hemorrhagic shock” value [1] does the source give for `CC(C)C[C@@H](/C=C/[C@H](Cc1ccccc1)C(=O)N1CCC[C@H]1C(=O)N[C@H](C(=O)N[C@@H](CCCNC(=O)OCc1ccccc1)C(=O)NC1CC(C)(C)N([O])C(C)(C)C1)C(C)C)NC(=O)OC(C)(C)C` [XJB-5-131] here?
**A.** significantly decreased

**Q.** And the “EPR signals of nitroxide radicals; integration into cells and mitochondria” value [2]?
**A.** concentrated in the mitochondria
